Assay results taken from patent publication US11491134B2, “Composition for inhibiting skin cell proliferation and/or anti-inflammation method for inhibiting skin cell proliferation and/or anti-inflammation and method for treating skin diseases and/or inflammatory diseases” (Industrial Technology Research Institute, priority 2019, dated 2022).

System: keratinocytes, HaCaT cells
Assay: Inhibition rate on keratinocyte (HaCaT cell) proliferation, MTT
Assay type: cell-based
Settings: Homo sapiens
Method: Dimethyl sulfoxide (DMSO) was used as a solvent to prepare apigenin test samples with different concentrations and luteolin test samples with different concentrations. 9 batches of experiments were performed, which respectively were Batch 1 to Batch 9. There were 6 independent experiments in each batch of experiments. In each independent experiment, inhibition rate of an apigenin test sample with a specific concentration on keratinocyte proliferation and inhibition rate of a luteolin test sample with a specific concentration on keratinocyte proliferation were determined, and inhibition rate of a combination of an apigenin test sample with the said specific concentration and a luteolin test sample with the said specific concentration on keratinocyte proliferation was determined. Between the independent experiments, concentrations of apigenin test samples used were different, and concentrations of luteolin test samples used were also different, however, mole ratios or weight ratios of apigenin test samples to luteolin test samples were the same. Moreover, between the batches of experiments, mole ratios or weight ratios of apigenin test samples to luteolin test samples were different. 5×10^3 keratinocytes, HaCaT cells, were inoculated in a 96-well culture plate and then placed in a 37° C. and 5% CO2 incubator for culturing overnight, and cell numbers at this time point (T0) was used as a benchmark for cell proliferation. After overnight culture, a test sample was added to the cells in the culture plate (refer to Table 1, and the cells of the control group were only treated with dimethyl sulfoxide) for co-culturing for 48 hours (T48). After that, the supernatant in the culture plate was removed. After the supernatant was removed, 50 μL MTT solution (0.5 mg/mL; Life Technologies Cat. No. M-6494) was added to cells and then the culture plate was placed in a 37° C. and 5% CO2 incubator for culturing for 1.5 hours. After that, 150 μL DMSO (J. T. Baker, Cat. No. 9224-03) was added to the cells in the culture plate and shaken for 5 minutes. Thereafter, the absorbance of each well of the culture plate was determined at 570 nm by a continuous wavelength microplate reader, and inhibition rate on cell proliferation was calculated through the following formula: Inhibition rate on cell proliferation=T48 Control group570 nm−T48 Experimental group570 nm)/(T48 Control group570 nm−T0 Control group570 nm) In this experiment, the synergistic effects of apigenin and luteolin were evaluated by CalcuSyn software (BIOSOFT). CalcuSyn software is an analysis software which is commonly used to analyze the drug dosage effect of single drug and multiple drugs at present. CalcuSyn software can be used to analyze drug complex interactions and automatically quantify various phenomena such as synergism and inhibition. CalcuSyn software can process the data of individual drugs and combination drugs with constant-ratio or on-constant-ratio, and can evaluate the interaction of combination drugs by the combination index (CI) (Chou and Talalay, Adv. Enzyme Regul. 22:27-55 (1984) calculated by CalcuSyn software. Calculation formula for the combination index is shown in the following: Combination index=C1/IC1+C2/IC2 C1 and C2 are the respective concentrations of the first compound and the second compound at which the activity of achieving a specific physiological or medical purpose is 50% (or 75%, or 90%) when the first compound and the second compound are analyzed in combination; IC1 and IC2 are the respective concentrations at which the activity of achieving a specific physiological or medical purpose of the first compound and the second compound is 50% (or 75%, or 90%) when the first compound and the second compound are independently analyzed. […]

In the case of `O=c1cc(-c2ccc(O)cc2)oc2cc(O)cc(O)c12` [Apigenin, apigenin], the inhibition at 3.125 µM (Batch 1, apigenin 3.125 μM/0.84 μg/mL) was 0%, the inhibition at 6.25 µM (Batch 1, apigenin 6.25 μM/1.69 μg/mL) was 0% and the inhibition at 12.5 µM (Batch 1, apigenin 12.5 μM/3.38 μg/mL) was 12.2%. The inhibition at 25 µM (Batch 1, apigenin 25 μM/6.76 μg/mL) was 29.2%, the inhibition at 50 µM (Batch 1, apigenin 50 μM/13.51 μg/mL) was 72.2% and the inhibition at 100 µM (Batch 1, apigenin 100 μM/27.02 μg/mL) was 103%. For the same compound, the inhibition at 3.125 µM (Batch 2, apigenin 3.125 μM/0.84 μg/mL) was 3.7%, the inhibition at 6.25 µM (Batch 2, apigenin 6.25 μM/1.69 μg/mL) was 5.8% and the inhibition at 12.5 µM (Batch 2, apigenin 12.5 μM/3.38 μg/mL) was 15.7%. For the same compound, the inhibition at 25 µM (Batch 2, apigenin 25 μM/6.76 μg/mL) was 40.7%, the inhibition at 50 µM (Batch 2, apigenin 50 μM/13.51 μg/mL) was 75.6% and the inhibition at 100 µM (Batch 2, apigenin 100 μM/27.02 μg/mL) was 105%. It also gave an inhibition at 3.125 µM (Batch 3, apigenin 3.125 μM/0.84 μg/mL) of 0%, an inhibition at 6.25 µM (Batch 3, apigenin 6.25 μM/1.69 μg/mL) of 5% and an inhibition at 12.5 µM (Batch 3, apigenin 12.5 μM/3.38 μg/mL) of 17.2%. It also gave an inhibition at 25 µM (Batch 3, apigenin 25 μM/6.76 μg/mL) of 39.7%, an inhibition at 50 µM (Batch 3, apigenin 50 μM/13.51 μg/mL) of 75.3% and an inhibition at 100 µM (Batch 3, apigenin 100 μM/27.02 μg/mL) of 103%. For the same compound, the inhibition at 3.125 µM (Batch 4, apigenin 3.125 μM/0.84 μg/mL) was 0%, the inhibition at 6.25 µM (Batch 4, apigenin 6.25 μM/1.69 μg/mL) was 0% and the inhibition at 12.5 µM (Batch 4, apigenin 12.5 μM/3.38 μg/mL) was 8.9%. The inhibition at 25 µM (Batch 4, apigenin 25 μM/6.76 μg/mL) was 31.9%, the inhibition at 50 µM (Batch 4, apigenin 50 μM/13.51 μg/mL) was 71.9% and the inhibition at 100 µM (Batch 4, apigenin 100 μM/27.02 μg/mL) was 103%. The inhibition at 3.125 µM (Batch 5, apigenin 3.125 μM/0.84 μg/mL) was 2.3%, the inhibition at 6.25 µM (Batch 5, apigenin 6.25 μM/1.69 μg/mL) was 11.1% and the inhibition at 12.5 µM (Batch 5, apigenin 12.5 μM/3.38 μg/mL) was 18.3%. It also gave an inhibition at 25 µM (Batch 5, apigenin 25 μM/6.76 μg/mL) of 36.2%, an inhibition at 50 µM (Batch 5, apigenin 50 μM/13.51 μg/mL) of 77.1% and an inhibition at 100 µM (Batch 5, apigenin 100 μM/27.02 μg/mL) of 110%. The inhibition at 1.5625 µM (Batch 6, apigenin 1.5625 μM/0.42 μg/mL) was 0%, the inhibition at 3.125 µM (Batch 6, apigenin 3.125 μM/0.84 μg/mL) was 0% and the inhibition at 6.25 µM (Batch 6, apigenin 6.25 μM/1.69 μg/mL) was 0%. It also gave an inhibition at 12.5 µM (Batch 6, apigenin 12.5 μM/3.38 μg/mL) of 1.3%, an inhibition at 25 µM (Batch 6, apigenin 25 μM/6.76 μg/mL) of 48.7% and an inhibition at 50 µM (Batch 6, apigenin 50 μM/13.51 μg/mL) of 72%. For the same compound, the inhibition at 0.625 µM (Batch 7, apigenin 0.625 μM/0.17 μg/mL) was 8%, the inhibition at 1.25 µM (Batch 7, apigenin 1.25 μM/0.34 μg/mL) was 8.3% and the inhibition at 2.5 µM (Batch 7, apigenin 2.5 μM/0.68 μg/mL) was 12.8%. The inhibition at 5 µM (Batch 7, apigenin 5 μM/1.35 μg/mL) was 8.7%, the inhibition at 10 µM (Batch 7, apigenin 10 μM/2.70 μg/mL) was 24.7% and the inhibition at 20 µM (Batch 7, apigenin 20 μM/5.40 μg/mL) was 40.4%. The inhibition at 0.3125 µM (Batch 8, apigenin 0.3125 μM/0.08 μg/mL) was 4.3%, the inhibition at 0.625 µM (Batch 8, apigenin 0.625 μM/0.17 μg/mL) was 9% and the inhibition at 1.25 µM (Batch 8, apigenin 1.25 μM/0.34 μg/mL) was 10.1%. It also gave an inhibition at 2.5 µM (Batch 8, apigenin 2.5 μM/0.68 μg/mL) of 8.9%, an inhibition at 5 µM (Batch 8, apigenin 5 μM/1.35 μg/mL) of 10.4% and an inhibition at 10 µM (Batch 8, apigenin 10 μM/2.70 μg/mL) of 18.3%. For the same compound, the inhibition at 0.15625 µM (Batch 9, apigenin 0.15625 μM/0.04 μg/mL) was 1.4%, the inhibition at 0.3125 µM (Batch 9, apigenin 0.3125 μM/0.08 μg/mL) was 3.9% and the inhibition at 0.625 µM (Batch 9, apigenin 0.625 μM/0.17 μg/mL) was 2.1%. The inhibition at 1.25 µM (Batch 9, apigenin 1.25 μM/0.34 μg/mL) was 4.6%, the inhibition at 2.5 µM (Batch 9, apigenin 2.5 μM/0.68 μg/mL) was 3.2% and the inhibition at 5 µM (Batch 9, apigenin 5 μM/1.35 μg/mL) was 3.2%.
